Source: patent publication US20110172182A1, “Carboxyethylated Cyclodextrin Polysulfates Useful As Medicaments” (ARCARIOS B.V., priority 2008, published 2011)

Tests used:
[1] = tested on: human articular chondrocytes from osteoarthritic (OA) cartilage; test: IL-6 release by OA chondrocytes in alginate beads; format: cell-based; conditions: 5 μg/ml, 5 culture days
From the text: (§1) Human articular chondrocytes were isolated as described in J. Tissue Culture Methods (1993) 15:139-146). Briefly, human articular cartilage was obtained at total knee replacement surgery from femoral condyles and the tibial plateau of 15 different donors. None of them had received corticosteroids or cytostatic drugs. Both visually intact and fibrillated OA cartilage samples were harvested separately and only OA cartilage was used for cell culture. The cartilage samples were diced into small fragments and the chondrocytes were isolated by sequential enzymatic digestion (hyaluronidase, pronase and collagenase) of the extracellular matrix (ECM) as described in Osteoarthritis Cartilage (2001) 9:73-84. Isolated cells were then centrifuged for 10 minutes at 1500 rpm, washed three times in Dulbecco's Modified Eagle's Medium (DMEM) with 10% (v/v) fetal calf serum, and counted with trypan blue to exclude dead cells. More than 90% of the cells were viable after isolation.
(§2) Chondrocytes were cultured in alginate beads, to maintain their differentiated phenotype. The cultures were prepared as described in Connect Tissue Res. (1989) 19:277-297. Chondrocytes suspended in one volume of double-concentrated Hank's Balanced Salts Solution (HBSS, commercially available from Gibco) without calcium and magnesium were carefully mixed with an equal volume of 2% (w/v) autoclaved alginate (low-viscosity alginate from Macrocystis pyrifera, commercially available from Sigma) in HBSS. The final cell concentration was 5×10^6 chondrocytes per ml in 1% alginate. The chondrocyte/alginate suspension was then slowly dripped through a 23-gauge needle into a 102 mM calcium chloride solution. […]
(§3) To study the impact of the changes in the chondrocyte cultures after cyclodextrin polysulfate treatment, mean IL-6 and aggrecan concentrations were calculated from triplicate chondrocyte cultures of each donor. […] Evolution of mouse weight over time was analysed by longitudinal data analysis methods, more specific by area under the curve and mixed model analysis. […]

[2] = tested on: human articular chondrocytes from osteoarthritic (OA) cartilage; test: Aggrecan synthesis by OA chondrocytes in alginate beads (ELISA of interterritorial matrix); format: cell-based; conditions: 5 μg/ml, 5 culture days
From the text: as §1, §2, §3

[3] = tested on: thrombin clotting; conditions: in vitro; cited from earlier work
[4] = tested on: rabbit model of experimental osteoarthritis (OA); conditions: subcutaneously administered; cited from earlier work
[5] = tested on: healthy donor thrombocytes; test: Platelet activation (CD62p, flow cytometry) by HIT patient anti-heparin/PF4 antibodies; format: cell-based, human; conditions: for ratio: % CD62p+ (with substance)/% CD62p+ (without) / ΔCD62p+ %: percentage increases in CD62p positive platelets: 0.3 IU heparin or 5 μg/ml polysaccharide
Procedure: The activation of healthy donor thrombocytes by HIT patient anti-heparin/PF4 antibodies in the presence of heparin and the differently sulfated forms of β-cyclodextrin was tested. […] The expression of CD62p by the activated platelets was assayed by means of flow cytometry with a FC500 analyzer (available from Beckman Coulter, Belgium). Platelet-rich plasma solution (PRP) was prepared by slow centrifugation (10 minutes at 180 g) of fresh citrate anti-coagulated blood (1:9 v/v, 0.129 mol/L or 3.8% trisodium citrate buffer), obtained from normal donors. HIT Ab positive plasma samples from patients and HIT Ab negative control plasma from healthy donors were prepared by double centrifugation (15 minutes at 2230 rpm) of fresh citrate anti-coagulated blood. 70 μl of PRP was incubated with 20 μL of HIT Ab containing plasma optionally in the presence of heparin (0.3 IU/ml) or the relevant β-cyclodextrin derivative (5 μg/ml). Experiments with each HIT Ab positive plasma sample were repeated independently using thrombocytes of 2 donors (A and B), to avoid the possibility of non-reactive platelets.
Following the initial 40 minutes incubation step, 5 μl of the platelets solution was transferred to a fresh tube with 85 μL phosphate buffered saline (PBS) containing 1% bovine serum albumin (BSA) and 0.1% Na-azide, 5 μl (0.25 μg) monoclonal anti-CD41 antibodies (Ab) (phycoerythrin-Texas Red Energy coupled dye (ECD)-conjugated, Beckman Coulter) and 5 μl (0.125 μg) of anti-CD62p Ab (phycoerythrin (PE)-conjugated, Beckman Coulter). CD41 (Glycoprotein […]) is a selective marker of platelets and platelet precursors. CD62p is a constituent of alpha granules and is released to the platelet surface on activation.
After 20 minutes of incubation at room temperature, the total volume of the platelet suspension was adjusted to 600 μL buffered solution and evaluated without delay by flow cytometry. 20,000 events per sample were analysed and the platelet populations were gated by side scatter characteristics and the platelet marker CD41. The fraction of activated platelets among the total platelet population was determined and relative CD62p ratios to the internal controls were calculated. [ratio: % CD62p^+ (0.3 IU Heparine or 5 μg/ml β-cyclodextrin derivative)/% CD62p^+ (0 IU Heparine or 0 μg/ml β-cyclodextrin derivative)]. Test results for the heparin treated platelets were evaluated by the scoring system described in Thromb. Haemost. (1999) 82:1255-1259. Control tests were scored positive when the calculated ratios of at least 2 donors were more then 2, based on previously obtained results with normal individuals. To evaluate the potential of the different β-cyclodextrin derivatives to induce platelet activation, both the percentages and ratios of CD62p^+ platelets after incubation with the respective β-cyclodextrin were statistically compared to the percentage and the ratio of CD62p^+ platelets after heparin incubation.

[6] = tested on: normal pooled plasma; test: Blood coagulation activities (aPTT, PT, fibrinogen) in normal pooled plasma; set-up: species or system human; conditions: after incubation with 50 or 100 μg/ml
Procedure: MA-CDPS, HP-CDPS, CE-CDPS and CDPS (as defined in examples 3-4 and characterised in table 1) were prepared as buffered solutions at various concentrations. The polysaccharides were incubated with normal pooled plasma prepared out of 40 healthy volunteers and analyzed for their effects on activated partial thromboplastin time (aPTT), prothrombin time (PT) and fibrinogen levels on a STA Compact® coagulation analyzer (available from Diagnostica Stago, Asnieres, France) according to the manufacturers instructions.

[7] = HIT ab plasma pat1, platelet donor dA
[8] = HIT ab plasma pat1, platelet donor dB
[9] = HIT ab plasma pat2, platelet donor dB
[10] = HIT ab plasma pat3, platelet donor dA
[11] = HIT ab plasma pat3, platelet donor dB
[12] = HIT ab plasma pat4, platelet donor dA
[13] = HIT ab plasma pat4, platelet donor dB

## 2,6-di-O-methyl-3-sulfate-β-cyclodextrin [ME-CD-3-S]
[1]
  effect on chondrocyte IL-6 release/secretion: failed to affect
[2]
  effect on chondrocyte aggrecan synthesis: failed to affect

## 2,3-di-O-methyl-6-sulfate-β-cyclodextrin [ME-CD-6-S]
[1]
  effect on chondrocyte IL-6 release/secretion: failed to affect
[2]
  effect on chondrocyte aggrecan synthesis: failed to affect

## β-cyclodextrin polysulfate [CDPS]
[3]
  thrombin clotting times: prolongation
  thrombus formation: reduction
[4]
  cartilage lesions and osteocyte formation in the affected joints: reduced
[5]; [7]
  ratio: % CD62p+ (with substance)/% CD62p+ (without): 5.8
  ΔCD62p+ %: percentage increases in CD62p positive platelets: 76.1%
[5]; [8]
  ratio: % CD62p+ (with substance)/% CD62p+ (without): 6.5
  ΔCD62p+ %: percentage increases in CD62p positive platelets: 73.1%
[5]; HIT ab plasma pat2, platelet donor dA
  ΔCD62p+ %: percentage increases in CD62p positive platelets: 27.5%
[5]; [9]
  ratio: % CD62p+ (with substance)/% CD62p+ (without): 0.7
  ΔCD62p+ %: percentage increases in CD62p positive platelets: −2.8%
[5]; [10]
  ratio: % CD62p+ (with substance)/% CD62p+ (without): 2.5
  ΔCD62p+ %: percentage increases in CD62p positive platelets: 42.7%
[5]; [11]
  ratio: % CD62p+ (with substance)/% CD62p+ (without): 7.0
  ΔCD62p+ %: percentage increases in CD62p positive platelets: 34.1%
[5]; [12]
  ratio: % CD62p+ (with substance)/% CD62p+ (without): 4.4
  ΔCD62p+ %: percentage increases in CD62p positive platelets: 63.5%
[5]; [13]
  ratio: % CD62p+ (with substance)/% CD62p+ (without): 2.5
  ΔCD62p+ %: percentage increases in CD62p positive platelets: 58.1%
[5]; in the presence of plasma samples of individuals that had developed HIT Ab
  platelet activation: induced platelet activation
[6]
  fibrinogen concentrations: Minor decreases

## COC[C@H]1O[C@@H]2O[C@H]3[C@H](OC)[C@@H](OC)[C@@H](O[C@H]4[C@H](OC)[C@@H](OC)[C@@H](O[C@H]5[C@H](OC)[C@@H](OC)[C@@H](O[C@H]6[C@H](OC)[C@@H](OC)[C@@H](O[C@H]7[C@H](OC)[C@@H](OC)[C@@H](O[C@H]8[C@H](OC)[C@@H](OC)[C@@H](O[C@H]1[C@H](OC)[C@H]2OC)O[C@@H]8COC)O[C@@H]7COC)O[C@@H]6COC)O[C@@H]5COC)O[C@@H]4COC)O[C@@H]3COC [ME-CD, 2,3,6-tri-O-methyl-β-cyclodextrin]
[1]
  effect on chondrocyte IL-6 release/secretion: failed
[2]
  effect on chondrocyte aggrecan synthesis: failed to promote
